Reference: publication PMC6934184, “Selective DNA-PKcs inhibition extends the therapeutic index of localized radiotherapy and chemotherapy” (The Journal of Clinical Investigation, 2019)

Target: T1, AMPK A1/B1/G1 (Homo sapiens, UniProt Q13131)
T1 construct: purchased Thermo Fisher Scientific (Life Technologies) SelectScreen
Assay: SelectScreen Z'LYTE
Assay type: biochemical
Summary of the method: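 NU5455 was profiled across the SelectScreen Broad panel of kinase activity and binding assays. Z'LYTE reactions such as CSF1R ran at apparent Km ATP, while the Adapta CAMK1 assay used ATP listed as 10. Values are given as percent.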

T1 sequence (Q13131 whole entry): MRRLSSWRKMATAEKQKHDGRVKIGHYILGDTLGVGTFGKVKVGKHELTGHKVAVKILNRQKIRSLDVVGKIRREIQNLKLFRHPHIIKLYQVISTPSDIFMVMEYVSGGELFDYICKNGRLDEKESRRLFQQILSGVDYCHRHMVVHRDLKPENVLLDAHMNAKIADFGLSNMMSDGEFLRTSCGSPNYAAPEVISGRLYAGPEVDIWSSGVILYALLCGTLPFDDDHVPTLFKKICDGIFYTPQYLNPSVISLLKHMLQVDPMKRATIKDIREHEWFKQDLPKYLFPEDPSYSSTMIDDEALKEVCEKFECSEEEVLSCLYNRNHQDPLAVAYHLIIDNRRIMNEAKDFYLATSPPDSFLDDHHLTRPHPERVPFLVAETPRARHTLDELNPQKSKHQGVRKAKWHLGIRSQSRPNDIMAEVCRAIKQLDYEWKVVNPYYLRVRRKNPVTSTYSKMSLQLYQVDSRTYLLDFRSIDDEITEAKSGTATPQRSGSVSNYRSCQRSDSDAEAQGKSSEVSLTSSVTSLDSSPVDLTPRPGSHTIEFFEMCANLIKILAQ
T1 sequence (Q9Y478 whole entry partner): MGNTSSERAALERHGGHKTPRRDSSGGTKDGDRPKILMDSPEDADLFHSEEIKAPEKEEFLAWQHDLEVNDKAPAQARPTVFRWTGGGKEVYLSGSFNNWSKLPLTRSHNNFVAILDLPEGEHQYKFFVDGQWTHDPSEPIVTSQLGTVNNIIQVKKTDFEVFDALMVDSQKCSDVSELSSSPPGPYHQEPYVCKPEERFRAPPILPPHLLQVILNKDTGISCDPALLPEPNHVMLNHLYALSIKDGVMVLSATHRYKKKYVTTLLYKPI
T1 sequence (P54619 whole entry partner): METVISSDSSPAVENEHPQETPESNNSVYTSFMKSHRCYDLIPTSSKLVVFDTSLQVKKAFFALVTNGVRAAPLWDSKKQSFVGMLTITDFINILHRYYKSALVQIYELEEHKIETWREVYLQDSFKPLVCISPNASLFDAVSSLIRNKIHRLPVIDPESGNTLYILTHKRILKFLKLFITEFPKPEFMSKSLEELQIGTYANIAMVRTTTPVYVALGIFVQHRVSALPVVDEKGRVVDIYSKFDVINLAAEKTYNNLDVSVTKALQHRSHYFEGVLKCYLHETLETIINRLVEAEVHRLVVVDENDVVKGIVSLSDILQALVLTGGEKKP

Work on `CN(C(=O)CN1CCOCC1)c1ccc2sc3c(-c4cccc5c(=O)cc(N6CC7CCC(C6)O7)oc45)cccc3c2c1` [NU5455] yielded an inhibition at 1 µM of -1.2%.
